According to ChEMBL document CHEMBL5465560, “Selectivity Literature for EUbOPEN Chemogenomic Library” (2024):

Experiments:
[1] = target: Tyrosine-protein kinase BAZ1B (Homo sapiens) (UniProt Q9UIG0); assay: Selectivity interaction (Human bromodomain panel (DSF assay)) EUB0000233b BAZ1B
[2] = target: Tyrosine-protein kinase receptor Tie-1 (Homo sapiens) (UniProt P35590); assay: Selectivity interaction (KinomeScan (DiscoverX)) EUB0000229b TIE1; settings: at 10 µM
[3] = target: Histone-lysine N-methyltransferase PRDM9 (Homo sapiens) (UniProt Q9NQV7); settings: at 10 µM
[4] = target: Tyrosine-protein kinase JAK2 (Homo sapiens, UniProt O60674); assay: Selectivity interaction (Antiproliferative activity against Tel-kinase transformed Ba/F3 cell line) EUB0000045b JAK2; assay type: cell-based; settings: BaF3
[5] = target: Serine/threonine-protein kinase 32B (Homo sapiens) (UniProt Q9NY57); assay: Selectivity interaction (KinomeScan (DiscoverX)) EUB0000045b STK32B
[6] = target: Serine/threonine-protein kinase pim-1 (Homo sapiens, UniProt P11309); assay: Selectivity interaction (KinomeScan (DiscoverX)) EUB0000045b PIM1
[7] = target: Interferon-induced, double-stranded RNA-activated protein kinase (Homo sapiens) (UniProt P19525); assay: Selectivity interaction (KinomeScan (DiscoverX)) EUB0000695a EIF2AK2; settings: at 100 nM
[8] = system: Tyrosine-protein kinase ABL1 (Homo sapiens), P00519 [G250E]; assay: (§1) Selectivity interaction (Kinase panel (Z-LYTE Assay)) EUB0001632a ABL1; settings: at 10 µM
[9] = target: Tyrosine-protein kinase ABL1 (Homo sapiens, UniProt P00519); assay: as §1; settings: at 10 µM
[10] = system: Tyrosine-protein kinase ABL1 (Homo sapiens), P00519 [T315I]; assay: as §1; settings: at 10 µM
[11] = system: Tyrosine-protein kinase ABL1 (Homo sapiens), P00519 [Y253F]; assay: as §1; settings: at 10 µM
[12] = system: Tyrosine-protein kinase ABL1 (Homo sapiens), P00519 [F317I]; assay: as §1; settings: at 10 µM
[13] = system: Tyrosine-protein kinase ABL1 (Homo sapiens), P00519 [E255K]; assay: as §1; settings: at 10 µM
[14] = target: T1, Serine/threonine-protein kinase BRSK2 (Homo sapiens) (UniProt Q8IWQ3); settings: at 10 µM
T1 sequence (whole entry): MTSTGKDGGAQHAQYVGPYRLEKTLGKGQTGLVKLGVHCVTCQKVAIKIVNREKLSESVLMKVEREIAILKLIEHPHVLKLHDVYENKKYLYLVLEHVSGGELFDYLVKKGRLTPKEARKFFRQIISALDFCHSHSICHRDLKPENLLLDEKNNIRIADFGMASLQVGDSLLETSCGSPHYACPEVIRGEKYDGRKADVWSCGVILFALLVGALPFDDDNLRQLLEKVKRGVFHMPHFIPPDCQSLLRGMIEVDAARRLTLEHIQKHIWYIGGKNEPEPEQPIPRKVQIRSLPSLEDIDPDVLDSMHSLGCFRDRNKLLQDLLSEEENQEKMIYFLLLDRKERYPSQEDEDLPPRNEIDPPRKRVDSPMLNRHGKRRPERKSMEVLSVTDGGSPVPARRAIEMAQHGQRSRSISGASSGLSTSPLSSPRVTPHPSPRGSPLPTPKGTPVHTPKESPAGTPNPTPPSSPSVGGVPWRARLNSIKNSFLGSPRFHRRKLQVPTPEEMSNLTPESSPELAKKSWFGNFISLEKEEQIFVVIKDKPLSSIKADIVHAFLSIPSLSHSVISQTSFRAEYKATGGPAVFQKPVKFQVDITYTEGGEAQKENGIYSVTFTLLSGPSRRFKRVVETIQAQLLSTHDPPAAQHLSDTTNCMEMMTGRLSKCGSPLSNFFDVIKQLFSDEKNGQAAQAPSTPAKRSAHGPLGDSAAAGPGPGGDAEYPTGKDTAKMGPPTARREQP

[15] = target: T2, Mitogen-activated protein kinase 13 (Homo sapiens) (UniProt O15264); assay: Selectivity interaction (Upstate Kinase Profiler service (Millipore)) EUB0000056c MAPK13; settings: at 1 µM
T2 sequence (whole entry): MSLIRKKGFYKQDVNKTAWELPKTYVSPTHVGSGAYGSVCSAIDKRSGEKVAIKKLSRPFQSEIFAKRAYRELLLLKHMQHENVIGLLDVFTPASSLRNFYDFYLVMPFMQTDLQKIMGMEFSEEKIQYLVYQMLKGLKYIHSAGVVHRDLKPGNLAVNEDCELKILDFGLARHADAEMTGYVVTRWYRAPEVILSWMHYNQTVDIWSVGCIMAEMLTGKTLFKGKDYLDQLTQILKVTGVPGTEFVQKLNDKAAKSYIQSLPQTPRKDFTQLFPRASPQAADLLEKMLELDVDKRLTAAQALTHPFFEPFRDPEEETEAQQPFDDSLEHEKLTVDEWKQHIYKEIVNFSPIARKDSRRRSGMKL

[16] = target: T3, Protein kinase C iota type (Homo sapiens) (UniProt P41743); assay: Selectivity interaction (ActivX KiNativ screen (kinase selectivity in THP-1 cell lysates)) EUB0000639a PRKCI; assay type: subcellular; settings: lysate, at 0.2 µM
T3 sequence (whole entry): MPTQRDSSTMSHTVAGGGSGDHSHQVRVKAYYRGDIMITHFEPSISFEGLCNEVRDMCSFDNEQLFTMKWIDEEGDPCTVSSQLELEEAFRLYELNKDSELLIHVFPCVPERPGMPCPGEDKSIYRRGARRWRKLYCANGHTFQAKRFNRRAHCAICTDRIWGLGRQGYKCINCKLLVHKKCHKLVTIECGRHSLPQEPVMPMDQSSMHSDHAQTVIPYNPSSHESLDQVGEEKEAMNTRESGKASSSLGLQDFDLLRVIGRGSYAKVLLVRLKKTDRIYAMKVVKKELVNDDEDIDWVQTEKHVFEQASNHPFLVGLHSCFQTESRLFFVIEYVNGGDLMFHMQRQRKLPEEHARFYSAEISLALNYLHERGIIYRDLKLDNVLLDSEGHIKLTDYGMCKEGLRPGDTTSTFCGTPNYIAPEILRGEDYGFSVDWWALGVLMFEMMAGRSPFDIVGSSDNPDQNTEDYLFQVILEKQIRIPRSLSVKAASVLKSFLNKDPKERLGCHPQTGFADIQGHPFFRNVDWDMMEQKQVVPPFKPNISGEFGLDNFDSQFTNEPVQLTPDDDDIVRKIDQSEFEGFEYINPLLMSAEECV

[17] = target: Calcium/calmodulin-dependent protein kinase type II subunit delta (Homo sapiens) (UniProt Q13557); assay: Selectivity interaction (KinomeScan (DiscoverX)) EUB0000655a CAMK2D; settings: at 10 µM
[18] = target: Serine/threonine-protein kinase PAK 6 (Homo sapiens) (UniProt Q9NQU5); assay: Selectivity interaction (KinomeScan (DiscoverX)) EUB0000092b PAK6; settings: at 10 µM

Sequence of Serine/threonine-protein kinase 32B (Homo sapiens) (Q9NY57 whole entry): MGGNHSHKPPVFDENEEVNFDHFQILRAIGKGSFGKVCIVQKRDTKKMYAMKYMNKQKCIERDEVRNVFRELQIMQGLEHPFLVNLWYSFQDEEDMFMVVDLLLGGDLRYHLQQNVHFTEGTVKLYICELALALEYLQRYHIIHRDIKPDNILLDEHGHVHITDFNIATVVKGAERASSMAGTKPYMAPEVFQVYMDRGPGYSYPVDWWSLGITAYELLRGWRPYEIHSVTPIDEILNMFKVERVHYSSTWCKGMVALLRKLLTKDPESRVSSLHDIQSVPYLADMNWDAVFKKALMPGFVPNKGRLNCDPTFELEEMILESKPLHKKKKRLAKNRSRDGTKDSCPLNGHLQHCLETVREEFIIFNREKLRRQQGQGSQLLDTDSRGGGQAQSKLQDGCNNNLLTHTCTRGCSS
Sequence of Serine/threonine-protein kinase pim-1 (P11309 whole entry, looked up): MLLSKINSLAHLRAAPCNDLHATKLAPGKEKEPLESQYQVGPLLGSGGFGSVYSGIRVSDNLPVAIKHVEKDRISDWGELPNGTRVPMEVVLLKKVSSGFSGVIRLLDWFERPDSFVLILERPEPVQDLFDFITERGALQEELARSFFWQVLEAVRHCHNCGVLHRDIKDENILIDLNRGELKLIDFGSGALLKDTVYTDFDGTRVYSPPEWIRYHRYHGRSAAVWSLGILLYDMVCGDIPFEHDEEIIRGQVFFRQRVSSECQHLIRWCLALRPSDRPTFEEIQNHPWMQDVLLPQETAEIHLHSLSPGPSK
Sequence of Histone-lysine N-methyltransferase PRDM9 (Homo sapiens) (Q9NQV7 whole entry): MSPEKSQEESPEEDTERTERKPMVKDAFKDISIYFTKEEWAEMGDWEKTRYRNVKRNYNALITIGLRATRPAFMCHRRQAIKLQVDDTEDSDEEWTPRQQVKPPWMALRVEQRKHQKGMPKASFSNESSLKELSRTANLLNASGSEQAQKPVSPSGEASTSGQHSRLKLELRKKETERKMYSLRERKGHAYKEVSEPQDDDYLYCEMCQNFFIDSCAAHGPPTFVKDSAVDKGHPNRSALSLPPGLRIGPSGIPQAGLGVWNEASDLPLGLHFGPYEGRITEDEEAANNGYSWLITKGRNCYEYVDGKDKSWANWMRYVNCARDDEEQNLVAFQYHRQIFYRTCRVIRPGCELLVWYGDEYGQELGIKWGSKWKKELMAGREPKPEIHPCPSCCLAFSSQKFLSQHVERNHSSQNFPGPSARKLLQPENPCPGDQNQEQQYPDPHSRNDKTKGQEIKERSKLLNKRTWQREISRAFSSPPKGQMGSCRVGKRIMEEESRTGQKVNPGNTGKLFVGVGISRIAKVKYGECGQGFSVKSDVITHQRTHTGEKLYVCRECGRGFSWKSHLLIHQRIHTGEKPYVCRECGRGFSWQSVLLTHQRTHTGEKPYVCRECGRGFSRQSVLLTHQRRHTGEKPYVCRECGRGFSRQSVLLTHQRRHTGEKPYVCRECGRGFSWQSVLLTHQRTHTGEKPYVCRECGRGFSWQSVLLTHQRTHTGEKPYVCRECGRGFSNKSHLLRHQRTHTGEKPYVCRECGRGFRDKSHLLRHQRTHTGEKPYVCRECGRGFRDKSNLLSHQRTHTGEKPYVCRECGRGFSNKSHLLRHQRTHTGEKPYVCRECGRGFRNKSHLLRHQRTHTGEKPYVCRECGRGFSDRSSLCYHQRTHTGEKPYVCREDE
Sequence of Tyrosine-protein kinase receptor Tie-1 (Homo sapiens) (P35590 whole entry): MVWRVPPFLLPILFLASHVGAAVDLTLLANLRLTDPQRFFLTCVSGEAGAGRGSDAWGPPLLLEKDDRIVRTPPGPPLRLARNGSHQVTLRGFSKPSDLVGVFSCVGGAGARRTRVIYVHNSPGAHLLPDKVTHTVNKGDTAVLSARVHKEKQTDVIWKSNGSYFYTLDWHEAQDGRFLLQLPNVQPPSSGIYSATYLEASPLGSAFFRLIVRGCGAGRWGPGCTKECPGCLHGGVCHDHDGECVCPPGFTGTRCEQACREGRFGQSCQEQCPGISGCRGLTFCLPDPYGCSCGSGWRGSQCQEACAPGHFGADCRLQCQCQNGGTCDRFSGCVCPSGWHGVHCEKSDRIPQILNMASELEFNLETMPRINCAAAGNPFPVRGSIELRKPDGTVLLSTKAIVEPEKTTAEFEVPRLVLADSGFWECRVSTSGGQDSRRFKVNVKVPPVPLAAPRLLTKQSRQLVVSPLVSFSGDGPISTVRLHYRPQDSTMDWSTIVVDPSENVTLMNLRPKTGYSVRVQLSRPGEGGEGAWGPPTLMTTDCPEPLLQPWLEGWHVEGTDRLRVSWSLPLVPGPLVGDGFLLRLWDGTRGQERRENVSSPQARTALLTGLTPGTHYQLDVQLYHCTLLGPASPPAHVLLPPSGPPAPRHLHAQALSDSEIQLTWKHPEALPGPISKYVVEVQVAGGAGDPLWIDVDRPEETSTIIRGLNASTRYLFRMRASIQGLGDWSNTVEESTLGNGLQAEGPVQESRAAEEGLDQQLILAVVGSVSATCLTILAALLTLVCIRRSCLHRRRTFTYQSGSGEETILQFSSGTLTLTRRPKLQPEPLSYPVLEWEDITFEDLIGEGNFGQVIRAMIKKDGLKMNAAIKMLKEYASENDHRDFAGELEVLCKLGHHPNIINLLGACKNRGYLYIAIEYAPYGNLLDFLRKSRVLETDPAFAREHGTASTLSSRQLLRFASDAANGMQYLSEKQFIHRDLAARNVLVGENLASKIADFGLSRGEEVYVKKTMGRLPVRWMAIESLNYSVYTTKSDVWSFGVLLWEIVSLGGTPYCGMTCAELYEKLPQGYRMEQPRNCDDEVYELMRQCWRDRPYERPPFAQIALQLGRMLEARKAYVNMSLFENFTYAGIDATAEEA
Sequence of Tyrosine-protein kinase BAZ1B (Homo sapiens) (Q9UIG0 whole entry): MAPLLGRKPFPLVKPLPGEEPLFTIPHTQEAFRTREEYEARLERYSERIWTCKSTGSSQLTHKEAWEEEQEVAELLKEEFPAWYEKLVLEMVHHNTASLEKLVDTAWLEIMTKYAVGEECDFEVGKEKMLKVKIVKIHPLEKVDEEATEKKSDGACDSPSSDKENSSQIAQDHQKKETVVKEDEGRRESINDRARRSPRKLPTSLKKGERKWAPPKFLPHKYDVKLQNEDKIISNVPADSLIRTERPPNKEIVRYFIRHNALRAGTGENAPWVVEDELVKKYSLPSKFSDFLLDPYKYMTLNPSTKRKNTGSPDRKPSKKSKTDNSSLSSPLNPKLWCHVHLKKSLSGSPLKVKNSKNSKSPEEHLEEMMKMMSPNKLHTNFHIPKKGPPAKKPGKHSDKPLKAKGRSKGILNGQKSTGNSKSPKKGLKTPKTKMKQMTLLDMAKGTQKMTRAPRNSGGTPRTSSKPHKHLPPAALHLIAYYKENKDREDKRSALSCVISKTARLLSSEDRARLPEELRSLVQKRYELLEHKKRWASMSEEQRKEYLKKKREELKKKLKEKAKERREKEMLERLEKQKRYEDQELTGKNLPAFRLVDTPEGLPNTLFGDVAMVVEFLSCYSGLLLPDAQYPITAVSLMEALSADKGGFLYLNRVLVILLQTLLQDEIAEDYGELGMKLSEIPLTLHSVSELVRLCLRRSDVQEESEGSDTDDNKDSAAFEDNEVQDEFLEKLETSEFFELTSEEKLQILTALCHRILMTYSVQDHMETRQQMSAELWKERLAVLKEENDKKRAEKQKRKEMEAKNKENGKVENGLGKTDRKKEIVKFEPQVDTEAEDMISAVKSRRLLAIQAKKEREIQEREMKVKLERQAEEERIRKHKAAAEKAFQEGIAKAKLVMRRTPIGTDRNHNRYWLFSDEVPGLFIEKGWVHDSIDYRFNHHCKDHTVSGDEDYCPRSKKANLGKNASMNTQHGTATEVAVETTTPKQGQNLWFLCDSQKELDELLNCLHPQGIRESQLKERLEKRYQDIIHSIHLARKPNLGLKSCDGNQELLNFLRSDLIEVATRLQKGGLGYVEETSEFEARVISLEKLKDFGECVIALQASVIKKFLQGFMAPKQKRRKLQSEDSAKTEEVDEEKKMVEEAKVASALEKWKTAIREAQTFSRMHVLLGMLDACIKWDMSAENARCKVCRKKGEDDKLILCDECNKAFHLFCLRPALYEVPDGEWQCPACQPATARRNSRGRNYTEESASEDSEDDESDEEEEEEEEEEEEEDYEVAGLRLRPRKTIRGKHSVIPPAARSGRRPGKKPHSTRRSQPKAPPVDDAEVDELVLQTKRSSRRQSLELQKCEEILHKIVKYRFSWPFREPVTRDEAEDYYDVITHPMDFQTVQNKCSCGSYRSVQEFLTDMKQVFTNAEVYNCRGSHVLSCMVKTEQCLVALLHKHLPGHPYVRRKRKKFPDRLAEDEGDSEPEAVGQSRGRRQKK
Sequence of Interferon-induced, double-stranded RNA-activated protein kinase (Homo sapiens) (P19525 whole entry): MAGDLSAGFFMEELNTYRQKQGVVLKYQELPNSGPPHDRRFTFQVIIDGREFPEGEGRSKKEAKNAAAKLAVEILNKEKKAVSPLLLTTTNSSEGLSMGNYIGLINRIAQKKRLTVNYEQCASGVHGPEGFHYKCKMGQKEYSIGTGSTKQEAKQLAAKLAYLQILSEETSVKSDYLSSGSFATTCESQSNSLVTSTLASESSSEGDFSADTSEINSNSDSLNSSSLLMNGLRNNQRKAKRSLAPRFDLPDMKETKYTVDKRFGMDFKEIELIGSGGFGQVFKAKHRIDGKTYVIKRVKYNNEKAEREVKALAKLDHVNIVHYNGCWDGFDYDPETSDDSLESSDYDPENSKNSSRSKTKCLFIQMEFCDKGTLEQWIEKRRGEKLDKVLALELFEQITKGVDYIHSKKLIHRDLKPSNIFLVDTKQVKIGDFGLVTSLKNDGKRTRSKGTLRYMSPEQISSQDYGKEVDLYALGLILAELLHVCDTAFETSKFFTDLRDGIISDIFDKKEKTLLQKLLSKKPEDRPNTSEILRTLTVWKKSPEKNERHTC

CN(C)CCCOc1ccc(-c2cc(NCCCn3cccn3)nc(S(C)(=O)=O)n2)cc1
dTM [1]: < 2 K

COc1cc(N(C)c2ccnc3ccc(C(F)(F)F)cc23)cc(OC)c1OC
% binding [2]: 75%

CNCCN1CCC(c2cc(CN(C)C(=O)c3cccc(Oc4ccccc4)c3)ccn2)CC1
% activity [3]: > 90%

C=CC(=O)Nc1cc(-n2c(=O)ccc3cnc4ccc(-c5ccc(NS(C)(=O)=O)cc5)cc4c32)ccc1C
GIC50 [4]: 5.83 µM | % of control ([5]; at 1 µM): 100% | % of control ([5]; at 10 µM): 100% | % of control ([6]; at 1 µM): 100% | % of control ([6]; at 10 µM): 86%

Cc1cc(F)c(C(=O)Nc2cccc(-c3nncn3C(C)C)n2)cc1-n1cnc(C2CC2)c1
% of control [7]: 100%

Cn1cc(-n2cnc3c(NCc4nc5cc(Cl)c(Cl)cc5[nH]4)nc(N4CCOCC4)nc32)cn1
% of control [8]: 2.49% | % of control [9]: -6.52% | % of control [10]: -2.31% | % of control [11]: 2.36% | % of control [12]: 1.78% | % of control [13]: -3.74%

Cc1cc([C@@H](C)Nc2ccccc2C(=O)O)c2nc(N3CCOCC3)cc(=O)n2c1 [AZD-6482]
% of control [14]: 100%

Cc1ccc(-c2ccc3c(ccc4sc5c(c43)NC[C@@H](C)NC5=O)n2)cn1
% of inhibition [15]: 6%

CC[C@@H]1[C@H](F)C(=O)N[C@@H]1COc1nccc2cc(C(N)=O)c(OC)cc12 [ZIMLOVISERTIB]
% of inhibition [16]: 0%

CN(C)CCOc1ccc(-c2nc(-c3ccncc3)c(-c3ccc4c(c3)CC/C4=N\O)[nH]2)cc1
% of control [17]: 100%

CCC(=O)N1CCN(c2ccc(-n3c(=O)ccc4cnc5ccc(-c6cnc7ccccc7c6)cc5c43)cc2C(F)(F)F)CC1
% of control [18]: 87%
